Key:
[1] = target: T1, hmGluR5 (Homo sapiens, UniProt P41594); assay: Inhibition of quisqualate-induced inositol phosphate turnover in hmGluR5 expressing cells; assay type: cell-based; settings: agonist quisqualate, read-out: IC50 concentration, inhibition of quisqualate-induced inositol phosphate turnover
T1 construct: expressed in transfected cells
Excerpt: This can be determined in vitro for example at recombinant human metabotropic glutamate receptors, especially PLC-coupled subtypes thereof such as mGluR5, using different procedures like, for example, measurement of the inhibition of the agonist induced elevation of intracellular Ca^2+ concentration in accordance with L. P. Daggett et al., Neuropharm. Vol. 34, pages 871-886 (1995), P. J. Flor et al., J. Neurochem. Vol. 67, pages 58-63 (1996) or by determination to what extent the agonist induced elevation of the inositol phosphate turnover is inhibited as described by T. Knoepfel et al., Eur. J. Pharmacol. Vol. 288, pages 389-392 (1994), L. P. Daggett et al., Neuropharm. Vol. 67, pages 58-63 (1996) and references cited therein. Isolation and expression of human mGluR subtypes are described in U.S. Pat. No. 5,521,297. Selected agents of the invention show IC50 values for the inhibition of the agonist (e.g. glutamate or quisqualate) induced elevation of intracellular Ca2+ concentration or the agonist (e.g. glutamate or quisqualate) induced inositol phosphate turnover, measured in recombinant cells expressing hmGluR5a of about 1 nM to about 50 μM.
4-(3-Chloro-phenylamino)-1-(3-chloro-phenylethynyl)-cyclohexanol inhibits the quisqualate-induced inositol phosphate turnover in hmGluR5 expressing cells with an IC50 concentration of 4000 nM.

T1 sequence (P41594 21-1180 isoform P41594-2 limits assumed): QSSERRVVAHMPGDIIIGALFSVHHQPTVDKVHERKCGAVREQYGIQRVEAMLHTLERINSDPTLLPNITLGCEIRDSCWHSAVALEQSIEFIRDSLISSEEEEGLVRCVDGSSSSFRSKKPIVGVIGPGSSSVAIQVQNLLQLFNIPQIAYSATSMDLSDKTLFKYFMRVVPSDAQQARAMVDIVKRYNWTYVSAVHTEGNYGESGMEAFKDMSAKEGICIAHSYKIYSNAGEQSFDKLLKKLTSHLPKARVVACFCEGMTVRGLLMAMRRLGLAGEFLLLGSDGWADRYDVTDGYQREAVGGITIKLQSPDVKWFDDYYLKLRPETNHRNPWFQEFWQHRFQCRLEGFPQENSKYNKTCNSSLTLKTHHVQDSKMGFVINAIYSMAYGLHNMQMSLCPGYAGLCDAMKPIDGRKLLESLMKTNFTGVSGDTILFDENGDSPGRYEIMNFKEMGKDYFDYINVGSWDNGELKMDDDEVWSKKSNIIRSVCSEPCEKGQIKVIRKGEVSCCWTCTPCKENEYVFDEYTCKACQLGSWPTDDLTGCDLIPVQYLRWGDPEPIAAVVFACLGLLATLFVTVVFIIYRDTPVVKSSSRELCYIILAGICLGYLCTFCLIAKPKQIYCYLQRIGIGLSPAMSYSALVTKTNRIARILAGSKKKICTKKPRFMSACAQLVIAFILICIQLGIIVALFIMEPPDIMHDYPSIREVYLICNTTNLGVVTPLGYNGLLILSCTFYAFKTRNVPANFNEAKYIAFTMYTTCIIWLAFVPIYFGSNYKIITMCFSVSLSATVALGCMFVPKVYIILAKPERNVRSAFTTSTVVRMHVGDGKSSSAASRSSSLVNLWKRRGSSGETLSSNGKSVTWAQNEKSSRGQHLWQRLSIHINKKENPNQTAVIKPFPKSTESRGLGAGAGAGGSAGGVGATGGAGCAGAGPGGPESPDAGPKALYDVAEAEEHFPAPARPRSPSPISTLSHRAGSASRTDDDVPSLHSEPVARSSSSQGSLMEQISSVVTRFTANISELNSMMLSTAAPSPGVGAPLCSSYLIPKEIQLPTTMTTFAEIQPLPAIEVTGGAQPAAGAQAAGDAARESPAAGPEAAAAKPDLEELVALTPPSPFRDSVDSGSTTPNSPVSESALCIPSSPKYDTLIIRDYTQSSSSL

OC1(C#Cc2cccc(Cl)c2)CCC(Nc2cc(Cl)cc(Cl)c2)CC1 (centres unmarked) [Example 2.6, 4-(3,5-Dichloro-phenylamino)-1-(3-chloro-phenylethynyl)-cyclohexanol]
melting point: 145 to 149 °C

OC1(C#Cc2cccc(Cl)c2)CCC(Nc2cccc(Cl)c2)CC1 (centres unmarked) [Example 2.2, 4-(3-Chloro-phenylamino)-1-(3-chloro-phenylethynyl)-cyclohexanol]
IC50 [1]: 4 µM
